Results taken from US4818441A, “Quinine derivatines” (Takeda Chemical Industries, Ltd., priority 1979, dated 1989).

Assays:
[1] = tested on: ubiquinone-deficient enzyme preparation from beef heart mitochondria (succinate oxidase); assay: Electron transport activity (succinate oxidase activity of ubiquinone-deficient enzyme preparation); assay type: biochemical; settings: level of addition 5 n mole; control 7.1 ± 2.8
Method: Thus, the compound of this invention was added to a ubiquinone-deficient enzyme preparation made from beef heart mitochondria and the electron transport activity was investigated by assaying the succinate oxidase activity.
*The ubiquinonedeficient enzyme preparation was prepared from beef heart
mitochondria in accordance with the method of Lester and Fleischer
(Biochem. Biophys. Acta, 47, 358, 1961). The electron transport activity
was investigated by assaying the succinate oxidase activity.
**The composition of the reaction system (2 ml) was as follows. 0.2 M
sucrose, 10 mM TrisHCl (pH 7.4), 20 mM KCl, 3 mM MgCl2, […]
2Na, enzyme protein 1.99 mg, 50 μM potassium succinate, cytochrome C
0.2 mg. 1% Nikkol OP10 (produced by Nikko Chemicals Co. Ltd.) 5 μl
(control group) or 5 μl of a 1 mM solution of the test compound in 1%
Nikkol OP10. The oxygen consumption of this solution was measured with an
oxygen electrode device (Gilson Medical Electronics' Inc.).

[2] = tested on: rats with spontaneous hypertension (Ta:SHR); assay: Blood pressure of Ta:SHR, oral gavage; assay type: in vivo, rat; settings: 10 mg/kg/day oral gavage, mean ± standard error
Method: (§1) Thus, 21-week rats with spontaneous hypertension (Ta:SHR) were organized into groups of 8 to 10 individuals each, and one of the present compounds, i.e. 6-(6-hydroxy-3-methyl-3-hexenyl)-2,3-dimethoxy-5-methyl-1,4-benzoquinone (formula (I) wherein R:H3 CO, n:O, R2 :H, R1 :(CH2)3 OH, α β:double bond), and, as controls, ubiquinone homologs (ubiquinone-7 and ubiquinone-10) were each administered by oral gavage in doses of 10 mg/kg/day for 2 weeks (except on Sunday) or administered as incorporated in feed at the rate of 6 to 16 mg/kg/day for 4 weeks. Blood pressures were measured every week, and as for the oral gavage administration group, the blood was withdrawn from the abdominal aorta at the end of the administration period while each animal was kept under anesthesia with pentobarbital sodium (30 mg/kg, intraperitoneal). Then, the kidneys, liver, heart and adrenals were enucleated and weighed. At two weeks in the case of the oral gavage administration group (Table 3) or during week-1 through week-4 in the case of the feed incorporation group (Table 4), antihypertensive effects were observed. […] Since it is generally acknowledged that, in the case of ubiquinone homologs, such hypotensive effects are attributable to a depression of the ubiquinone (Q) deficiency in mitochondria, the degree of Q deficiency of heart mitochondria was investigated in 6 cases showing blood pressures over 230 mmHg in the control group and 6 cases showing blood pressures under 212 mmHg in the group dosed with the present compound.

[3] = tested on: rats with spontaneous hypertension (Ta:SHR); assay: Blood pressure of Ta:SHR, incorporated in feed; assay type: in vivo, rat; settings: 6-16 mg/kg/day in feed, mean ± standard error
Method: as §1

Rat liver lysosome = assay: Lysosomal membrane stabilizing activity (release of β-glucuronidase and acid phosphatase); assay type: biochemical; settings: 37° C., 90 minutes
Method: (1) Rat liver lysosome was incubated at 37° C. for 90 minutes and the activities of β-glucuronidase and acid phosphatase released from the lysosome due to instabilization of the membrane during that time were assayed and compared with the results obtained in the absence of the test compound. The test compound was added as dissolved in dimethylformamide.

[4] = tested on: beef heart muscle phosphodiesterase; assay: Phosphodiesterase inhibitory activity; assay type: biochemical; settings: 1 mM
Excerpt: Since lysosomal membrane-stabilizing activity is developed through adenosine-[…]-cyclic monophosphate (c-AMP) of tissue cells, the action of compound (I) on c-AMP phosphodiesterase, the c-AMP decomposing enzyme, was investigated. […] Therefore, it was confirmed, if only from this fact, that the compound according to this invention has a membrane-stabilizing activity.
(2) The rate of decomposition of adenosine-[…]-cyclic phosphate by beef heart muscle phosphodiesterase was compared with the rate found in the absence of the test compound.

[5] = tested on: isolated guinea pig trachea; assay: Tracheal muscle relaxant activity; settings: Cavia porcellus, relaxant effect of noradrenaline taken as 100, read-out: Tracheal muscle relaxant action; for Emax at 30 µg/mL: 3 × 10^-5 g/ml; for Emax at 100 µg/mL: 10^-4 g/ml
Method: Thus, the isolated guinea pig trachea was cut into a strip in accordance with the method of Kiyomoto et al. [Yamaura Y. ed. "Zensoku (Asthma)", Kodansha, Tokyo, p. 152, 1974 (Japanese language)], set up in a Magnus device and kept at constant contraction with potassium chloride solution five times the concentration of Tyrode solution. Under the above conditions, a solution of the drug in DMF was added and the muscle relaxant effect was recorded on a kymograph.
^(1) With the relaxant effect of noradrenaline being taken as 100.

SMILES	% Inhibition on release of acid phosphatase (Rat liver lysosome; 2 × 10^-4 M)	% Inhibition on release of β-Glucuronidase (Rat liver lysosome; 2 × 10^-4 M)	Action on phosphodiesterase % Inhibition [4]	also measured
COC1=C(OC)C(=O)C(C/C=C(\C)CC/C=C(\C)CC/C=C(\C)CO)=C(C)C1=O				Succinate oxidase activity [oxygen consumption] [1]: 42.4 ± 6.3 (n atoms oxygen) min. per mg p
COC1=C(OC)C(=O)C(C/C=C(\C)CC/C=C(\C)CO)=C(C)C1=O				Succinate oxidase activity [oxygen consumption] [1]: 35.5 ± 3.5 (n atoms oxygen) min. per mg p
COC1=C(OC)C(=O)C(CC=C(C)CCCC(C)(C)O)=C(C)C1=O				Succinate oxidase activity [oxygen consumption] [1]: 21.4 (n atoms oxygen) min. per mg p
COC1=C(OC)C(=O)C(C/C=C(\C)CC/C=C(\C)CC/C=C(\C)CC/C=C(\C)CC/C=C(\C)CC/C=C(\C)CCC=C(C)C)=C(C)C1=O [Ubiquinone-7, ubiquinone-7, reference compound]				Blood pressure ([2]; week 0): 199 ± 9 mmHg; Blood pressure ([2]; week 1): 204 ± 9 mmHg; Blood pressure ([2]; week 2): 206 ± 11 mmHg
COC1=C(OC)C(=O)C(C/C=C(\C)CC/C=C(\C)CC/C=C(\C)CC/C=C(\C)CC/C=C(\C)CC/C=C(\C)CC/C=C(\C)CC/C=C(\C)CC/C=C(\C)CCC=C(C)C)=C(C)C1=O [Ubiquinone-10, ubiquinone-10]				Blood pressure ([3]; week 0): 206 ± 16 mmHg; Blood pressure ([3]; week 1): 191 ± 14 mmHg; Blood pressure ([3]; week 2): 187 ± 10 mmHg; Blood pressure ([3]; week 3): 199 ± 17 mmHg; Blood pressure ([3]; week 4): 205 ± 13 mmHg
COC1=C(OC)C(=O)C(CC(O)C(C)C(=O)O)=C(C)C1=O (centres unmarked) [drawing 11 R#1]	49%	18%	60%	
CC1=C(C)C(=O)C(CC(O)C(C)C(=O)O)=C(C)C1=O (centres unmarked) [drawing 11 R#2]	48%	29%	20%	
CC1=C(CC(O)C(C)C(=O)O)C(=O)c2ccccc2C1=O (centres unmarked) [drawing 11 R#3]	35%	15%	40%	
COC1=C(OC)C(=O)C(C/C=C(\C)C(=O)O)=C(C)C1=O [drawing 13 R#1]	44%	36%	47%	
CC1=C(C)C(=O)C(C/C=C(\C)C(=O)O)=C(C)C1=O [drawing 13 R#2]	40%	36%	42%	
CC1=C(C/C=C(\C)C(=O)O)C(=O)c2ccccc2C1=O [drawing 13 R#3]			86%	
CC1=C(C/C=C(\C)CCCO)C(=O)c2ccccc2C1=O [drawing 17 R#3]				% Inhibition on release of acid phosphatase (Rat liver lysosome; 2 × 10^-5 M): 36%; % Inhibition on release of β-Glucuronidase (Rat liver lysosome; 2 × 10^-5 M): 25%
COC1=C(OC)C(=O)C(C/C=C(\C)CCCO)=C(C)C1=O [drawing 24]				Succinate oxidase activity [oxygen consumption] [1]: 18.2 (n atoms oxygen) min. per mg p
COC1=C(OC)C(=O)C(CCC(C)CO)=C(C)C1=O (centres unmarked) [drawing 25]				Succinate oxidase activity [oxygen consumption] [1]: 12.5 (n atoms oxygen) min. per mg p
COC1=C(OC)C(=O)C(C/C=C(\C)CCCO)=C(C)C1=O [drawing 28 R: H3 CO]				Emax at 30 µg/mL [5]: 85.5%; Emax at 100 µg/mL [5]: 100%
CC1=C(C)C(=O)C(C/C=C(\C)CCCO)=C(C)C1=O [drawing 28 R: H3 C]				Emax at 30 µg/mL [5]: 67%; Emax at 100 µg/mL [5]: 100%
Cn1c(=O)c2[nH]cnc2n(C)c1=O [theophylline, reference compound]			32%	Emax at 30 µg/mL [5]: 60.4%; Emax at 100 µg/mL [5]: 93%

Continued, in another order:

% Inhibition on release of acid phosphatase (Rat liver lysosome; 2 × 10^-4 M)	% Inhibition on release of β-Glucuronidase (Rat liver lysosome; 2 × 10^-4 M)	Action on phosphodiesterase % Inhibition [4]	SMILES	also measured
32%	37%	41%	CC1=C(C)C(=O)C(C/C=C(\C)CO)=C(C)C1=O [drawing 15 R#1]	
39%	37%	55%	CC1=C(C/C=C(\C)CO)C(=O)c2ccccc2C1=O [drawing 15 R#2]	
37%	28%	84%	COC1=C(OC)C(=O)C(C/C=C(\C)CCCO)=C(C)C1=O [drawing 17 R#1]	
		53%	CC1=C(C)C(=O)C(C/C=C(\C)CCCO)=C(C)C1=O [drawing 17 R#2]	% Inhibition on release of acid phosphatase (Rat liver lysosome; 2 × 10^-5 M): 34%; % Inhibition on release of β-Glucuronidase (Rat liver lysosome; 2 × 10^-5 M): 23%
43%	38%	38%	COC1=C(OC)C(=O)C(CCC(C)CO)=C(C)C1=O (centres unmarked) [drawing 19 R: H3 CO]	
21%	29%	44%	CC1=C(C)C(=O)C(CCC(C)CO)=C(C)C1=O (centres unmarked) [drawing 19 R: H3 C]	
16%	20%	18%	CC(=CCC1=C(C)C(=O)C(C)=C(C)C1=O)CCC=C(C)CCC(C)(C)O [drawing 20 R#1]	
		29%	CC(=CCC1=C(C)C(=O)c2ccccc2C1=O)CCC=C(C)CCC(C)(C)O [drawing 20 R#2]	% Inhibition on release of acid phosphatase (Rat liver lysosome; 2 × 10^-5 M): 9%; % Inhibition on release of β-Glucuronidase (Rat liver lysosome; 2 × 10^-5 M): 18%
